Consider 4 compounds from ChEMBL document CHEMBL1201862, “PubChem BioAssay data set” (2004).

Activity calls are given as the source filed them.

In one assay the target is SUMO E1/E2 (Homo sapiens, UniProt P63279+Q9UBE0+Q9UBT2). The assay can be described thus: SAR analysis of SUMOylation using HTRF in an in-Vitro dose response assay. [Related pubchem assays (depositor defined):AID2006, AID2011, AID2018, AID2069, AID2658]. The format is functional. On the technique in general: TR-FRET usually uses a lanthanide donor and a delayed reading to cut background.
Sequence of SUMO E1/E2 (Q9UBE0 whole entry): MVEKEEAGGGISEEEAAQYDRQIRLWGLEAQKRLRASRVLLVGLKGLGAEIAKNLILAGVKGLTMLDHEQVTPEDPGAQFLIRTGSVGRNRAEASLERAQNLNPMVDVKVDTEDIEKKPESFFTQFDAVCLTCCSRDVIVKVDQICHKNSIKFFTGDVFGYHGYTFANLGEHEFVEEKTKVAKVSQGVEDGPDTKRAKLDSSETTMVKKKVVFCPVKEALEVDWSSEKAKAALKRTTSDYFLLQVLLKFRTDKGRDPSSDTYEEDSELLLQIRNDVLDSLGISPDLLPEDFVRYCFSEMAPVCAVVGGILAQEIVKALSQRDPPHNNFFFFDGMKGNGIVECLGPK
Sequence of SUMO E1/E2 (Q9UBT2 whole entry): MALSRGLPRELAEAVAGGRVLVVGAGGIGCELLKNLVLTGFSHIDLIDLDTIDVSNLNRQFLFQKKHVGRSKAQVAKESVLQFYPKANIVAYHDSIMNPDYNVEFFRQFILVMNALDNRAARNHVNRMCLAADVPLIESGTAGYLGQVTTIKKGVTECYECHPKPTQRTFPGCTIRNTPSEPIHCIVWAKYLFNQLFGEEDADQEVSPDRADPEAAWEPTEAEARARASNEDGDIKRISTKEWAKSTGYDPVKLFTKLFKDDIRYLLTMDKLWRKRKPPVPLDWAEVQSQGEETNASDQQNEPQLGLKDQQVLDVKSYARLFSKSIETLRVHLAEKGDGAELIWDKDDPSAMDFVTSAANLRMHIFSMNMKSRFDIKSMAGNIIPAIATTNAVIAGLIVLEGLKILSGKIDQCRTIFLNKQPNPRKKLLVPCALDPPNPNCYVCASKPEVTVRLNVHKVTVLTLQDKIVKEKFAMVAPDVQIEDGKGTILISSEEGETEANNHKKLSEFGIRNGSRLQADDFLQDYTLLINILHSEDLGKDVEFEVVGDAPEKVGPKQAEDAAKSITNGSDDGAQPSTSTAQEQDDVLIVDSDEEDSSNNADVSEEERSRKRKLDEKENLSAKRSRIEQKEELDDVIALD
Sequence of SUMO E1/E2 (P63279 whole entry): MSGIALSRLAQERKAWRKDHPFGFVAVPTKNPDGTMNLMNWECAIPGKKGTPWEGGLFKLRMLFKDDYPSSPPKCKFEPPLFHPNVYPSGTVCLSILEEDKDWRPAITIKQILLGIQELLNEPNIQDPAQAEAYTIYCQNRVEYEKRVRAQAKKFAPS

The target in the next assay is T1, Caspase-6 (Homo sapiens, UniProt P55212).
T1 sequence (P55212 whole entry): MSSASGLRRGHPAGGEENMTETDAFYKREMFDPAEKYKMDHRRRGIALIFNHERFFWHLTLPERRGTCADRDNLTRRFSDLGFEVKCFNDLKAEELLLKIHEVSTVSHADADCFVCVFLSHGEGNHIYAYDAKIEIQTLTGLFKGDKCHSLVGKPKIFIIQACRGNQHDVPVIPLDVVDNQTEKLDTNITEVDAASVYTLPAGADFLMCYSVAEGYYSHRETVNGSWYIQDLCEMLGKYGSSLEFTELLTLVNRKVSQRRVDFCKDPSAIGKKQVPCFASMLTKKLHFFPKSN
The assay can be described thus: human caspase-6 inhibitors, dose response, biochemical, VEID-R110 fluorescence, cherry-pick (AID 720632).

The target of the next assay is T2, Leucine aminopeptidase (Plasmodium falciparum 3D7, UniProt Q8IL11).
T2 sequence (Q8IL11 whole entry): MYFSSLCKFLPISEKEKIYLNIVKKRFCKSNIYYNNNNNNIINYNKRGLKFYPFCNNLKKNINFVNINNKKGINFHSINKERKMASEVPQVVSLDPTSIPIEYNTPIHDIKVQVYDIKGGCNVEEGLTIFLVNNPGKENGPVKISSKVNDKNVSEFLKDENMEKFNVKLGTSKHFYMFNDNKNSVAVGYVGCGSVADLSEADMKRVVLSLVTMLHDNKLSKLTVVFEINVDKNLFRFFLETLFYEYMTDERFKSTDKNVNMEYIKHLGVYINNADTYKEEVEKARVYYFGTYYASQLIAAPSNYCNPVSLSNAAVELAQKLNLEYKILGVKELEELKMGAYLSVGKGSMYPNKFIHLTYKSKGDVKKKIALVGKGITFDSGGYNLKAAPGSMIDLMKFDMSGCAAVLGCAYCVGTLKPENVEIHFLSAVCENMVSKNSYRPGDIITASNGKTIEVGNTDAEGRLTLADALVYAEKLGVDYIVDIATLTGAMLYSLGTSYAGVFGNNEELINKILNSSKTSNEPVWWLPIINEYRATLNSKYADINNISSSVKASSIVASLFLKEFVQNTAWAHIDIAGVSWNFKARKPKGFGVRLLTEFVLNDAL
Nature of the assay: P. falciparum M17LAP inhibitors, primary screen, biochemical, fluorogenic H-Leu-NHMec substrate, 1536-well (AID 1619). The format is functional.

The target in assay [1] is T3, Carboxy-terminal domain RNA polymerase II polypeptide A small phosphatase 1 (Homo sapiens, UniProt Q9GZU7).
T3 sequence (Q9GZU7 whole entry): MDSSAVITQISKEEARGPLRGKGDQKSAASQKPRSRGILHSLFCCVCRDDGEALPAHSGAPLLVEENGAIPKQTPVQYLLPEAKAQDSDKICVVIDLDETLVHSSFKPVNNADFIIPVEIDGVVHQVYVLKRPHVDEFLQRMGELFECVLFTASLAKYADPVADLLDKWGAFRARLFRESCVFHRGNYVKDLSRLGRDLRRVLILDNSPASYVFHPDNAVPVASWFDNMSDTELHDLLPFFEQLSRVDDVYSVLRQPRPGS
Nature of the assay: inhibitors of CTDSP1, concentration-response testing, biochemical assay, absorbance-based, actives from ultra-high-throughput screening (AID 540297). The format is functional.

In assay [2] the target is Intestinal-type alkaline phosphatase (Mus musculus, UniProt P24822). The assay can be described thus: PubChem AID 488874. The format is functional.
Sequence of Intestinal-type alkaline phosphatase (Mus musculus, UniProt P24822) (P24822 whole entry): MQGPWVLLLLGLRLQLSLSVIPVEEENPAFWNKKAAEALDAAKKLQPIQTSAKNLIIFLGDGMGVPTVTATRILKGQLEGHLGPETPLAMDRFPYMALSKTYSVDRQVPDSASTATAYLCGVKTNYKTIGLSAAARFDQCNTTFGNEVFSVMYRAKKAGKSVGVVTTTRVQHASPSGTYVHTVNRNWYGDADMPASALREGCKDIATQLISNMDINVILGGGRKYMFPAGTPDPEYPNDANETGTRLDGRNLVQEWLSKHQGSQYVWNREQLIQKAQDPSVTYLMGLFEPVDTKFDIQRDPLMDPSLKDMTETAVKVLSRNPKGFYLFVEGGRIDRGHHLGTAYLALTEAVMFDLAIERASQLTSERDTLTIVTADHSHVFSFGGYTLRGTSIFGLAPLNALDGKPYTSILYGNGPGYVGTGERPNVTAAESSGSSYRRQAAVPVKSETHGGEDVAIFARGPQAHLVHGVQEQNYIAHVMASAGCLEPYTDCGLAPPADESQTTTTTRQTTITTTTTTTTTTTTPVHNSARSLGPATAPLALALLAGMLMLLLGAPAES
Assay [3] concerns the target Intestinal-type alkaline phosphatase (Homo sapiens, UniProt P09923). Nature of the assay: human IAP inhibitors, dose response, biochemical, luminescent, uHTS hits, set 2 (AID 488793). It is filed as functional.
Assay [4] addresses T4, Alkaline phosphatase, tissue-nonspecific isozyme (Homo sapiens, UniProt P05186).
T4 sequence (P05186 whole entry): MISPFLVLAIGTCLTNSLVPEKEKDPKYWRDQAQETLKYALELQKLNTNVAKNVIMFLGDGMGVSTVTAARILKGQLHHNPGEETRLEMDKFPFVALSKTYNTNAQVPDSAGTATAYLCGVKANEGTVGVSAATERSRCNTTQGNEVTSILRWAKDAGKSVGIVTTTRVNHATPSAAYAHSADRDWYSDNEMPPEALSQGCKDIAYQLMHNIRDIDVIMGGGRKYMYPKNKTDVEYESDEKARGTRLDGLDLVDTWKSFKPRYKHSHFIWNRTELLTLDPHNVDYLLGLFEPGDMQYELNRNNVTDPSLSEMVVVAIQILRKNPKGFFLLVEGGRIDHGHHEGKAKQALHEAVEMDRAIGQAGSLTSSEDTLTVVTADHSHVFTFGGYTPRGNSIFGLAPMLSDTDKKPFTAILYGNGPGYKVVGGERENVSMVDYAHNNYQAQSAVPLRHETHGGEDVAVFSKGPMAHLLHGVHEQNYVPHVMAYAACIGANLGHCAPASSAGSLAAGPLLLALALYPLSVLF
The assay can be described thus: inhibition of tissue-nonspecific alkaline phosphatase – biochemical, dose response (AID 488882). It is filed as functional.

In assay [5] the target is 5'-AMP-activated protein kinase catalytic subunit alpha-1 (Homo sapiens, UniProt Q13131). It is filed as functional.
Sequence of 5'-AMP-activated protein kinase catalytic subunit alpha-1 (Q13131 whole entry): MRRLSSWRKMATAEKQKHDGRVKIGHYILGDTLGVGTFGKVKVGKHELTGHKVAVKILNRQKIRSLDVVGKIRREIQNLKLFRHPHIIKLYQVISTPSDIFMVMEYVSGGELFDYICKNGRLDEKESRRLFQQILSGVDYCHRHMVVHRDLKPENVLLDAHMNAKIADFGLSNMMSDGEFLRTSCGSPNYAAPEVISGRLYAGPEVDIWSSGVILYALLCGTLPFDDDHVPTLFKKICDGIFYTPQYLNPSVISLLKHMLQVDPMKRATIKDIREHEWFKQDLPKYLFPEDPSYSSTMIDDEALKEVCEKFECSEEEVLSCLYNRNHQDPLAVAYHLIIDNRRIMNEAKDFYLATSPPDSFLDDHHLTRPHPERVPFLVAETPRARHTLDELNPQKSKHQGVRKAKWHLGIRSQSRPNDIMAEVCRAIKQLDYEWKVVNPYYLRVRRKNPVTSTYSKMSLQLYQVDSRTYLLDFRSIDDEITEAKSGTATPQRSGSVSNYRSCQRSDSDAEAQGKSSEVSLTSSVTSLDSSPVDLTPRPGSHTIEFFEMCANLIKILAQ
Assay [6] has as its target Dual specificity tyrosine-phosphorylation-regulated kinase 4 (Homo sapiens, UniProt Q9NR20). It is filed as functional.
Assay [7] addresses Mast/stem cell growth factor receptor Kit (Homo sapiens, UniProt P10721). The format is functional.
Assay [8] concerns the target Cyclin-dependent kinase 1 (Homo sapiens, UniProt P06493). The format is functional.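 Further: Kinome-wide panel profiling, with the target listed as panel member CDC2.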

In general, IC50 refers to the midpoint of a concentration-inhibition curve. Broadly, the AC50 is the midpoint of the concentration-response curve, whichever way the signal moves. What is called Ki is a dissociation constant, usually derived from enzyme kinetics or from competition with a known ligand. Broadly, the pKi is the Ki on a negative log10 scale, so that one unit is a factor of ten. Higher therefore signals a small Ki.

Sequence of Cyclin-dependent kinase 1 (P06493 whole entry): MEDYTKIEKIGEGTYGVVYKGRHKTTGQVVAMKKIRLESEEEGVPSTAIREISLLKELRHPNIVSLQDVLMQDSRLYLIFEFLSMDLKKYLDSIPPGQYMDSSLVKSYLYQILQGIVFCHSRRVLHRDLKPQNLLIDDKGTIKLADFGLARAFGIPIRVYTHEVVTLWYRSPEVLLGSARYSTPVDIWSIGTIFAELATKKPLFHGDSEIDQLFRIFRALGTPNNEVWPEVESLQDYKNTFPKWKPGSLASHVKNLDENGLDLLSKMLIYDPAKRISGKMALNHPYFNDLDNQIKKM
Sequence of Mast/stem cell growth factor receptor Kit (P10721 whole entry): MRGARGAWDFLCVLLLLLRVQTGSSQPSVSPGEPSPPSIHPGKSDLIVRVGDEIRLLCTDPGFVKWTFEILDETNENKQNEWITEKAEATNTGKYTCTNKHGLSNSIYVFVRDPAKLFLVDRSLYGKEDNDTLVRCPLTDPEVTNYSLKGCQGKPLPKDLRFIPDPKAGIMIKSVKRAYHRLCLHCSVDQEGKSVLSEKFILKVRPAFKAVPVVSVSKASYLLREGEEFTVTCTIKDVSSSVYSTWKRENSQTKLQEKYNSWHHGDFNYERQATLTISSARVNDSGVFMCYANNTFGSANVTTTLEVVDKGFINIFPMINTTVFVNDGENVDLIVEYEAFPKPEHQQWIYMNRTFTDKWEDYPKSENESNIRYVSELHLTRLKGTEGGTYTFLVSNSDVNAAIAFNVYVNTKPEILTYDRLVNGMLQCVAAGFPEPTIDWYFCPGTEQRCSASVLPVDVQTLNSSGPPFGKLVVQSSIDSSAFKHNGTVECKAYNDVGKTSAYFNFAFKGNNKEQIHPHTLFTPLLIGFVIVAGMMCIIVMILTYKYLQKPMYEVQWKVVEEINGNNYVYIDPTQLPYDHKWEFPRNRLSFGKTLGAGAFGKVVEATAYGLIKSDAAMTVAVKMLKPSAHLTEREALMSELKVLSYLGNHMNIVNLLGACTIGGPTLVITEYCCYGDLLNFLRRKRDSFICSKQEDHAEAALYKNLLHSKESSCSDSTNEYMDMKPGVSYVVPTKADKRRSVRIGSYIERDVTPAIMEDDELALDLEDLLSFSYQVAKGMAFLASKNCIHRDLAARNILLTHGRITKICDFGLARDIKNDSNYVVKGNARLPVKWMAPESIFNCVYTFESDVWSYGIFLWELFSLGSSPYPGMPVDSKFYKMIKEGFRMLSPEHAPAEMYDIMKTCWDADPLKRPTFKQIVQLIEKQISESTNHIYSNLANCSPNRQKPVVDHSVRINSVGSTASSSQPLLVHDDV
Sequence of Intestinal-type alkaline phosphatase (Homo sapiens, UniProt P09923) (P09923 whole entry): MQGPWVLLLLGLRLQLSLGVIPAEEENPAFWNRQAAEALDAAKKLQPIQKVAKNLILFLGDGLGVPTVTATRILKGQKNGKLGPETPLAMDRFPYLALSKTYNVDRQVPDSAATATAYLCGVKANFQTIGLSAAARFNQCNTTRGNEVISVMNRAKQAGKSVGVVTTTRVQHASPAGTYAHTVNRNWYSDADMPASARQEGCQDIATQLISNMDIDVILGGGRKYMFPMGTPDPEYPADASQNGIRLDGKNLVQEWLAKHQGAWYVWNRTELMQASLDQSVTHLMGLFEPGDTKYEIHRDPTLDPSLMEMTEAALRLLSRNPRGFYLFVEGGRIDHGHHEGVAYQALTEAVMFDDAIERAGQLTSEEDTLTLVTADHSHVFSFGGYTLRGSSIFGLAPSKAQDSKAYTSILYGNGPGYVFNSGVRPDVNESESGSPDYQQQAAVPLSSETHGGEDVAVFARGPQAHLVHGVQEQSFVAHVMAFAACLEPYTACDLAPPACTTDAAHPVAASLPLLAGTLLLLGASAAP
Sequence of Dual specificity tyrosine-phosphorylation-regulated kinase 4 (Q9NR20 whole entry): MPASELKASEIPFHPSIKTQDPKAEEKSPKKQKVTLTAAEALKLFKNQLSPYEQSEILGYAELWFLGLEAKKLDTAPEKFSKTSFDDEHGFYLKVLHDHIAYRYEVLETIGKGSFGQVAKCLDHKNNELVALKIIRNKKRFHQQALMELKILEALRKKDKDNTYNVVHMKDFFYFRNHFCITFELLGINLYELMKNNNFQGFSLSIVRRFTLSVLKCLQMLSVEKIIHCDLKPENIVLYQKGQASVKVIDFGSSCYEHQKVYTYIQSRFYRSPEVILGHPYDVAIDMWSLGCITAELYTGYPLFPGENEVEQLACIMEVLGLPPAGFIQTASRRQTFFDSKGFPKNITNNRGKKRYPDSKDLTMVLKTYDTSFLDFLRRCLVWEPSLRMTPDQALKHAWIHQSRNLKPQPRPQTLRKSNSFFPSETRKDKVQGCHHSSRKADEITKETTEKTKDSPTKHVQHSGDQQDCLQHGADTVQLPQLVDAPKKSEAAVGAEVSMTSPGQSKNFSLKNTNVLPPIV

In the case of `CC(=O)NC1C(=O)N(CCN2CCOCC2)c2ccc(F)cc21` (configuration not stated), the IC50 at SUMO E1/E2 is 13.4 µM (active). Also, at Caspase-6, the AC50 is 16 µM (active).
On to `O=C1N=C(NS(=O)(=O)Cc2ccccc2)S/C1=C1\C(=O)Nc2ccccc21`, for which the IC50 on Leucine aminopeptidase was 26.7 µM (active); in assay [1] it was 16.7 µM (active).
In the case of `Oc1ccc(N=Nc2c(O)ccc3ccccc23)cc1`, the IC50 in assay [2] was 17.4 µM (active); in assay [3] it was 15.5 µM (active); in [4], 16.5 µM (active).
For `Cc1n[nH]c2ccc(-c3cncc(OCC(N)Cc4cccc(Cl)c4)c3)cc12` (configuration not stated), the Ki in [5] is 0.01 µM (active); in assay [6], 0.316 µM (active); in assay [7], > 1.26 µM (inactive); in assay [8], 0.0398 µM (active). In assay [8], the pKi was found to be 7.4.
